Holding throughout (format): in vivo
One assay concerns Tenebrio molitor pupae. As to the kind of experiment: topical application to Tenebrio molitor pupae, maturation inhibition. An excerpt:
(§1) The compounds were applied in acetone solution at concentrations of 10 percent, 1 percent and 0.5 percent. One microliter of the acetone solution was applied to each test specimen. Ten test specimens were employed for each insect at each concentration and compared to ten acetone controls and ten zero controls. Approximately eight to ten days were required before results could be ascertained.
(§2) The insect species used in the test were Tenebrio molitor pupae; milkweed bug, fourth nymphal stage; wax moth, fifth larval stage; and Mexican bean beetle, fourth larval stage. At the completion of the test, each specimen was examined for the degree of juvenile and adult characteristics. The milkweed bug, wax moth, and Mexican bean beetle were assigned a numerical rating of 0 to 3 with 0 indicating no effect and 3 indicating the maximum effect or least adult development. Because of differences in morphology the Tenebrio rating scale was 0 to 4. In all cases a rating of 2 or higher means that the insect is incapable of reproduction. The number of specimens in each rating classification are given. In any test were the total of specimens reported is less than 10, those unreported died in some metamorphic stage. Such deaths indicate control, since the dead insects are not capable of reproducing.

The test system of another assay is milkweed bug. As to the kind of experiment: topical application to milkweed bug, fourth nymphal stage, maturation inhibition.
Source text: as §1, §2

A further assay has as its system wax moth. Nature of the assay: topical application to wax moth, fifth larval stage, maturation inhibition.
Source text: as §1, §2

The next assay concerns Mexican bean beetle. As to the kind of experiment: topical application to Mexican bean beetle, fourth larval stage, maturation inhibition.
Source text: as §1, §2

Where [1] appears, read: 10% in acetone, 1 microliter topical, rating scale 0 (no effect) to 3 (maximum).
The mark [2] stands for this setting: 10% in acetone, 1 microliter topical, rating scale 0 (no effect) to 4 (maximum).

As to `CCOc1cccc(CCC=C(C)CCC=C(C)C)c1` [9-(3-ethoxyphenyl)-2,6-dimethyl-2,6nonadiene], the “number of specimens in rating 0” value in the assay on Tenebrio molitor pupae (0.5%, rating scale 0-4) is on record as 10 specimens; in the assay on Tenebrio molitor pupae (1%, rating scale 0-4), 8 specimens; with milkweed bug (0.5%, rating scale 0-3), 3 specimens; in the assay with wax moth (0.5%, rating scale 0-3), 10 specimens; with wax moth (1%, rating scale 0-3) it was 10 specimens; in the assay on wax moth (setting [1]), 10 specimens. In addition, the “number of specimens in rating 0” value in the assay on Mexican bean beetle (0.5%, rating scale 0-3) is reported as 10 specimens; with Mexican bean beetle (1%, rating scale 0-3) it was 8 specimens; with Mexican bean beetle (setting [1]), 1 specimens. The “number of specimens in rating 1” value in the assay with Tenebrio molitor pupae (1%, rating scale 0-4) is recorded as 2 specimens; in the assay with Tenebrio molitor pupae (10%, rating scale 0-4), 1 specimens; in the assay with milkweed bug (0.5%, rating scale 0-3) it was 1 specimens; in the assay with Mexican bean beetle (1%, rating scale 0-3) it was 2 specimens. Further, the “number of specimens in rating 3” value in the assay with Tenebrio molitor pupae (10%, rating scale 0-4) was 5 specimens; in the assay with milkweed bug (1%, rating scale 0-3), 2 specimens; in the assay on milkweed bug (10%, rating scale 0-3), 7 specimens; with Mexican bean beetle (10%, rating scale 0-3), 7 specimens. Moreover, in the assay on Tenebrio molitor pupae (10%, rating scale 0-4), the “number of specimens in rating 4” value was 4 specimens. Further, the “number of specimens in rating 2” value is recorded as 2 specimens in the assay with milkweed bug (0.5%, rating scale 0-3); 7 specimens in the assay with milkweed bug (1%, rating scale 0-3); 2 specimens in the assay on Mexican bean beetle (10%, rating scale 0-3).

In the case of `CCC1(C)OC1CCC(C)=CCCc1ccc2c(c1)OCO2` (stereo not drawn) [3,4-EPOXY-3,7-DIMETHYL-10-(3,4-METHYLENEDIOXYPHENYL)-7-DECENE], the “number of specimens in rating 4” value in the assay on Tenebrio molitor pupae (0.5%, rating scale 0-4) is 10 specimens; in the assay with Tenebrio molitor pupae (1%, rating scale 0-4), 10 specimens; with Tenebrio molitor pupae (10%, rating scale 0-4), 10 specimens. For the same molecule, the “number of specimens in rating 0” value in the assay with milkweed bug (0.5%, rating scale 0-3) stood at 2 specimens; with milkweed bug (1%, rating scale 0-3), 2 specimens. The “number of specimens in rating 1” value with milkweed bug (0.5%, rating scale 0-3) was 5 specimens. In addition, the “number of specimens in rating 2” value in the assay with milkweed bug (0.5%, rating scale 0-3) is on record as 2 specimens; in the assay with wax moth (0.5%, rating scale 0-3), 1 specimens. The “number of specimens in rating 3” value in the assay with milkweed bug (1%, rating scale 0-3) amounted to 8 specimens; in the assay on wax moth (0.5%, rating scale 0-3) it was 9 specimens; with wax moth (1%, rating scale 0-3), 10 specimens; with Mexican bean beetle (0.5%, rating scale 0-3) it was 10 specimens; in the assay with Mexican bean beetle (1%, rating scale 0-3) it was 10 specimens.

As to `CC(C)=CCC/C(C)=C/CCc1ccccc1` [2,6-DIMETHYL-9-PHENYL-2,6-NONADIENE], the “number of specimens in rating 0” value in the assay with Tenebrio molitor pupae (0.5%, rating scale 0-4) amounted to 7 specimens; in the assay with Tenebrio molitor pupae (1%, rating scale 0-4) it was 6 specimens; in the assay with milkweed bug (0.5%, rating scale 0-3) it was 8 specimens; with milkweed bug (1%, rating scale 0-3), 2 specimens; in the assay with wax moth (0.5%, rating scale 0-3), 10 specimens; in the assay on wax moth (1%, rating scale 0-3), 10 specimens. Besides, in the assay with wax moth (setting [1]), the “number of specimens in rating 0” value came out at 10 specimens. Further, the “number of specimens in rating 1” value with Tenebrio molitor pupae (0.5%, rating scale 0-4) was found to be 3 specimens; in the assay with Tenebrio molitor pupae (1%, rating scale 0-4), 4 specimens; with milkweed bug (0.5%, rating scale 0-3), 1 specimens; in the assay on milkweed bug (1%, rating scale 0-3), 1 specimens. Moreover, the “number of specimens in rating 2” value in the assay on Tenebrio molitor pupae (10%, rating scale 0-4) is on record as 1 specimens; in the assay with milkweed bug (0.5%, rating scale 0-3), 1 specimens. Also, the “number of specimens in rating 3” value was 4 specimens in the assay on Tenebrio molitor pupae (10%, rating scale 0-4); 9 specimens in the assay with milkweed bug (10%, rating scale 0-3); 10 specimens with Mexican bean beetle (0.5%, rating scale 0-3); 10 specimens in the assay with Mexican bean beetle (1%, rating scale 0-3); 10 specimens with Mexican bean beetle (10%, rating scale 0-3). Moreover, the “number of specimens in rating 4” value in the assay with Tenebrio molitor pupae (10%, rating scale 0-4) is listed as 5 specimens.

Take `CC(C)=CCC/C(C)=C/CCc1cccc(Cl)c1` [trans-2,6-dimethyl-9-(3-chlorophenyl)-2,6-nonadiene]: the “number of specimens in rating 0” value is 10 specimens with Tenebrio molitor pupae (0.5%, rating scale 0-4); 10 specimens in the assay on Tenebrio molitor pupae (1%, rating scale 0-4); 2 specimens in the assay with Tenebrio molitor pupae (setting [2]); 10 specimens in the assay on wax moth (0.5%, rating scale 0-3); 7 specimens in the assay with wax moth (1%, rating scale 0-3); 7 specimens with wax moth (setting [1]). The “number of specimens in rating 0” value in the assay with Mexican bean beetle (0.5%, rating scale 0-3) amounted to 10 specimens; in the assay with Mexican bean beetle (1%, rating scale 0-3), 9 specimens. For the same molecule, the “number of specimens in rating 1” value in the assay with Tenebrio molitor pupae (10%, rating scale 0-4) is listed as 1 specimens; in the assay with wax moth (1%, rating scale 0-3), 1 specimens; with wax moth (10%, rating scale 0-3) it was 3 specimens. For the same molecule, the “number of specimens in rating 2” value in the assay with Tenebrio molitor pupae (10%, rating scale 0-4) came to 1 specimens; in the assay on wax moth (1%, rating scale 0-3), 2 specimens. Moreover, the “number of specimens in rating 3” value in the assay on Tenebrio molitor pupae (10%, rating scale 0-4) was 6 specimens; in the assay with milkweed bug (0.5%, rating scale 0-3), 10 specimens; with milkweed bug (1%, rating scale 0-3) it was 10 specimens; with milkweed bug (10%, rating scale 0-3), 10 specimens; with Mexican bean beetle (1%, rating scale 0-3), 1 specimens; with Mexican bean beetle (10%, rating scale 0-3), 10 specimens.

On to `CCOC(=O)c1ccc(CC/C=C(\C)CCC=C(C)C)cc1` [ethyl trans-4-(4,8-dimethyl-3,7-nonadienyl)benzoate], for which the “number of specimens in rating 0” value in the assay with Tenebrio molitor pupae (0.5%, rating scale 0-4) is on record as 9 specimens; in the assay with Tenebrio molitor pupae (1%, rating scale 0-4), 10 specimens; in the assay with Tenebrio molitor pupae (setting [2]) it was 3 specimens; in the assay on milkweed bug (0.5%, rating scale 0-3) it was 1 specimens; with wax moth (0.5%, rating scale 0-3) it was 10 specimens; with wax moth (1%, rating scale 0-3), 10 specimens. In addition, the “number of specimens in rating 0” value with wax moth (setting [1]) came to 10 specimens; with Mexican bean beetle (0.5%, rating scale 0-3), 9 specimens; in the assay on Mexican bean beetle (1%, rating scale 0-3) it was 10 specimens; in the assay with Mexican bean beetle (setting [1]), 8 specimens. Further, the “number of specimens in rating 1” value in the assay with Tenebrio molitor pupae (10%, rating scale 0-4) came out at 5 specimens. The “number of specimens in rating 2” value in the assay with Tenebrio molitor pupae (10%, rating scale 0-4) is recorded as 1 specimens; in the assay with milkweed bug (0.5%, rating scale 0-3) it was 3 specimens; with Mexican bean beetle (10%, rating scale 0-3), 2 specimens. Moreover, the “number of specimens in rating 3” value in the assay on Tenebrio molitor pupae (10%, rating scale 0-4) amounted to 1 specimens; with milkweed bug (0.5%, rating scale 0-3), 6 specimens; in the assay with milkweed bug (1%, rating scale 0-3) it was 10 specimens; in the assay on milkweed bug (10%, rating scale 0-3), 10 specimens.

Turning to `CC(C)=CCC/C(C)=C/CCc1cccc(C)c1` [trans-2,6-dimethyl-9-(3-tolyl)-2,6-nonadiene], the “number of specimens in rating 0” value in the assay on Tenebrio molitor pupae (0.5%, rating scale 0-4) worked out at 10 specimens; with Tenebrio molitor pupae (1%, rating scale 0-4), 9 specimens; with milkweed bug (0.5%, rating scale 0-3), 10 specimens; in the assay with milkweed bug (1%, rating scale 0-3), 5 specimens; with wax moth (0.5%, rating scale 0-3), 10 specimens; in the assay on wax moth (1%, rating scale 0-3), 10 specimens. The “number of specimens in rating 0” value is given as 10 specimens with wax moth (setting [1]); 9 specimens in the assay with Mexican bean beetle (0.5%, rating scale 0-3); 1 specimens in the assay with Mexican bean beetle (1%, rating scale 0-3). Besides, the “number of specimens in rating 2” value in the assay on Tenebrio molitor pupae (1%, rating scale 0-4) stood at 1 specimens; with milkweed bug (1%, rating scale 0-3), 2 specimens; in the assay on Mexican bean beetle (0.5%, rating scale 0-3) it was 1 specimens; in the assay with Mexican bean beetle (1%, rating scale 0-3), 1 specimens. In addition, in the assay on Tenebrio molitor pupae (10%, rating scale 0-4), the “number of specimens in rating 4” value was 10 specimens. For the same molecule, the “number of specimens in rating 3” value in the assay on milkweed bug (1%, rating scale 0-3) amounted to 1 specimens; in the assay with milkweed bug (10%, rating scale 0-3), 10 specimens; in the assay with Mexican bean beetle (1%, rating scale 0-3) it was 7 specimens; in the assay with Mexican bean beetle (10%, rating scale 0-3), 10 specimens. The “number of specimens in rating 1” value in the assay on Mexican bean beetle (1%, rating scale 0-3) came to 1 specimens.

For the molecule `CC(C)=CCC/C(C)=C/CCc1cccs1` [trans-9-(2-THIENYL)-2,6-DIMETHYL-2,6-NONADIENE], the “number of specimens in rating 0” value in the assay with Tenebrio molitor pupae (0.5%, rating scale 0-4) worked out at 8 specimens; in the assay on Tenebrio molitor pupae (1%, rating scale 0-4), 10 specimens; in the assay on milkweed bug (0.5%, rating scale 0-3), 10 specimens; in the assay with milkweed bug (1%, rating scale 0-3) it was 10 specimens; in the assay with milkweed bug (setting [1]), 3 specimens; with Mexican bean beetle (0.5%, rating scale 0-3), 9 specimens. Moreover, the “number of specimens in rating 0” value with Mexican bean beetle (1%, rating scale 0-3) stood at 5 specimens. In addition, the “number of specimens in rating 1” value with Tenebrio molitor pupae (0.5%, rating scale 0-4) turned out to be 2 specimens; in the assay on Tenebrio molitor pupae (10%, rating scale 0-4), 1 specimens; in the assay with Mexican bean beetle (0.5%, rating scale 0-3), 1 specimens; in the assay on Mexican bean beetle (1%, rating scale 0-3) it was 5 specimens. For the same molecule, the “number of specimens in rating 4” value in the assay on Tenebrio molitor pupae (10%, rating scale 0-4) is given as 9 specimens. Moreover, the “number of specimens in rating 3” value stood at 4 specimens with milkweed bug (10%, rating scale 0-3) and 10 specimens in the assay with Mexican bean beetle (10%, rating scale 0-3).

Consider `CC(C)=CCC/C(C)=C/CCc1cccc(Br)c1` [trans-9-(3-BROMOPHENYL)-2,6-DIMETHYL-2,6-NONADIENE], for which the “number of specimens in rating 0” value with Tenebrio molitor pupae (0.5%, rating scale 0-4) is 8 specimens; in the assay on Tenebrio molitor pupae (1%, rating scale 0-4) it was 8 specimens; in the assay with Tenebrio molitor pupae (setting [2]) it was 8 specimens; in the assay with Mexican bean beetle (0.5%, rating scale 0-3) it was 8 specimens; in the assay on Mexican bean beetle (1%, rating scale 0-3), 7 specimens; in the assay on Mexican bean beetle (setting [1]) it was 9 specimens. Also, the “number of specimens in rating 1” value in the assay with Tenebrio molitor pupae (0.5%, rating scale 0-4) is reported as 1 specimens; with Tenebrio molitor pupae (1%, rating scale 0-4) it was 2 specimens; in the assay with Tenebrio molitor pupae (10%, rating scale 0-4) it was 2 specimens; with Mexican bean beetle (0.5%, rating scale 0-3), 1 specimens; in the assay on Mexican bean beetle (1%, rating scale 0-3), 1 specimens. For the same molecule, in the assay on Tenebrio molitor pupae (0.5%, rating scale 0-4), the “number of specimens in rating 2” value was determined as 1 specimens. The “number of specimens in rating 3” value in the assay with milkweed bug (0.5%, rating scale 0-3) stood at 10 specimens; in the assay on milkweed bug (1%, rating scale 0-3), 10 specimens; in the assay on milkweed bug (10%, rating scale 0-3) it was 10 specimens; with Mexican bean beetle (0.5%, rating scale 0-3), 1 specimens; with Mexican bean beetle (1%, rating scale 0-3), 2 specimens; in the assay on Mexican bean beetle (10%, rating scale 0-3), 1 specimens.

Source of the values: US3962282A, “Juvenile hormone mimics” (priority 1974, dated 1976).
